Test results as given in US9688695B2, “Imidazothiadiazole and imidazopyrazine derivatives as protease activated receptor 4 (PAR4) inhibitors for treating platelet aggregation” (BRISTOL-MYERS SQUIBB COMPANY, priority 2012, dated 2017).

What was measured:
[1] = test system: carotid artery thrombosis; test: Cynomolgus monkey electrolytic injury-induced carotid artery thrombosis model; format: in vivo; conditions: oral, electrically-induced arterial thrombus model
From the text: The efficacy of the PAR4 antagonists of the present invention in preventing thrombosis can also be measured in a variety of in vivo assays. Exemplary mammals that can provide models of thrombosis and hemostasis to test the effectiveness of the PAR4 antagonists of the present invention as antithrombotic agents include, but are not limited to, guinea pigs and primates. Relevant efficacy models include, but are not limited to, electrolytic injury-induced carotid artery thrombosis, FeCl3-induced carotid artery thrombosis and arteriovenous-shunt thrombosis. […]
On the day of the study, compounds or vehicles were administered orally at 1 to 2 hours before the experiment. […] Blood pressure and heart rate were monitored to maintain normal vital signs.
Carotid blood flow was measured with an appropriately sized TRANSONIC® flow probe and a TRANSONIC® perivascular flowmeter (TS420 Model, Transonic Systems Inc., Ithaca, N.Y.). It was continuously recorded over a 90-min period to monitor thrombosis-induced occlusion. Integrated carotid blood flow was measured by the area under the flow-time curve. It was expressed as percent of total control carotid blood flow, which would result if control blood flow had been maintained continuously for 90 min. […]

[2] = test system: carotid artery thrombosis; test: cynomolgus monkey electrolytic injury-induced carotid artery thrombosis model; format: in vivo
PAR4 [3] = molecular target: T1, PAR4 (Homo sapiens (Human), UniProt Q96RI0); test: Gamma thrombin induced platelet aggregation assay (PRP assay); format: cell-based; conditions: human platelet rich plasma, 96-well microplate
T1 sequence (Q96RI0 18-385): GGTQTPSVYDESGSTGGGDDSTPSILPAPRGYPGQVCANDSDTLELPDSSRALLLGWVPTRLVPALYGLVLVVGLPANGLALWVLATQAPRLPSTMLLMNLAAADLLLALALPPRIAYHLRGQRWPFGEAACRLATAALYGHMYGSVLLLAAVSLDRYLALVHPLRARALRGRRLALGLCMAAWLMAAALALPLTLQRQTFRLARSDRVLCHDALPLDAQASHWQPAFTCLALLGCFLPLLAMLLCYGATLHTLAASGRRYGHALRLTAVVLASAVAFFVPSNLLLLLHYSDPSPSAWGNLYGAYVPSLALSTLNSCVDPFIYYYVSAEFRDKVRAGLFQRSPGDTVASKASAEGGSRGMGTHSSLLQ
Experimental: Platelet aggregation can be monitored in a 96-well microplate aggregation assay format or using standard platelet aggregometer.
The platelet rich plasma was isolated by centrifugation at 170 g for 14 minutes.
The ability of the compounds of the current invention to inhibit platelet aggregation induced by gamma-thrombin was tested in a 96-well microplate aggregation assay format. Briefly, PRP or washed platelet suspension (100 μl) was pre-incubated for 5 minutes at room temperature with varying concentrations of compounds. Aggregation was initiated by ˜10-50 nM gamma thrombin (Haematologic Technologies, Essex Junction, Vt.), which was titrated daily to achieve 80% platelet aggregation. Refludan at 1 U/mL (Berlex, Montville, N.J.) was added to the gamma thrombin sample to prevent PAR1 activation induced by residual alpha-thrombin contamination. The plate was then placed into a 37° C. Molecular Devices (Sunnyvale, Calif.) SPECTRAMAX® Plus Plate Reader. […] The plate also included an untreated control sample which served as ODmax, while buffer containing no platelets was the ODmin. Platelet aggregation was determined by subtracting the ODmax from the ODmin for the 100% aggregation value. In experimental samples, the observed transmission was subtracted from the minimum value and then compared to the 100% aggregation value to determine the percentage aggregation. IC50 values are determined using Excel Fit software.

PAR4 [4] = molecular target: T1, PAR4; test: FLIPR assay in PAR4-expressing HEK293 cells (PAR4 antagonist activity, calcium mobilization); format: cell-based; conditions: H-Ala-Phe(4-F)-Pro-Gly-Trp-Leu-Val-Lys-Asn-Gly-NH2-induced calcium mobilization
In short: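 HEK293 EBNA cells stably expressing human PAR4 (also endogenous PAR1) preincubated 30 min at room temperature with compound in HBSS/10 mM HEPES, 0.67% DMSO final. PAR4 agonist peptide then added and intracellular calcium mobilization monitored by fluorescence.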

PAR1 = PAR1 (Homo sapiens (Human), UniProt P25116); conditions: ACS patients, phase III; cited from earlier work
Sequence of PAR1 (P25116 22-425): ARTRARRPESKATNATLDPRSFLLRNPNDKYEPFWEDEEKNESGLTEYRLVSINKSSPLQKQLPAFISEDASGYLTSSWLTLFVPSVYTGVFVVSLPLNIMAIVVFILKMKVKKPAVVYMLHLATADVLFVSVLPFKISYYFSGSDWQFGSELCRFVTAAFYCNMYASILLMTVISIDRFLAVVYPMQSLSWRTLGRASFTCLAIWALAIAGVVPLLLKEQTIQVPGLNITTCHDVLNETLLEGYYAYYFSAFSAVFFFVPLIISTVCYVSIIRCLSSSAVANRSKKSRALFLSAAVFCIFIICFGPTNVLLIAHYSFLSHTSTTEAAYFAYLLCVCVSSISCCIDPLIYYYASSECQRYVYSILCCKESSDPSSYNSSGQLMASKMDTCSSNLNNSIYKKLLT

| Structure (SMILES) | IC50 (PAR4 [3]) | EC50 (PAR4 [4]) | other results |
| --- | --- | --- | --- |
| COc1cc(OCc2csc(-c3ccccc3)n2)c2cc(-c3cn4nc(OC)sc4n3)oc2c1 [Example 3, 2-Methoxy-6-(6-methoxy-4-((2-phenylthiazol-4-yl)methoxy)benzofuran-2-yl)imidazo[2,1-b][1,3,4]thiadiazole] | – | – | antithrombotic efficacy (dose response, FIG. 1C) [1]: demonstrating the in vivo antithrombotic efficacy; antithrombotic efficacy (FIG. 1C) [2]: antithrombotic efficacy |
| COc1cc(OCc2csc(C3(O)CCOCC3)n2)c2cc(-c3cn4nc(OC)sc4n3)oc2c1 [Example 118, 4-(4-(((6-Methoxy-2-(2-methoxyimidazo[2,1-b][1,3,4]thiadiazol-6-yl)benzofuran-4-yl)oxy)methyl)thiazol-2-yl)tetrahydro-2H-pyran-4-ol] | 25 nM | 0.33 nM | – |
| COc1cc(OCc2nc(C3(O)CCOCC3)sc2C(F)(F)F)c2cc(-c3cn4nc(OC)sc4n3)oc2c1 [Example 131, 4-(4-(((6-Methoxy-2-(2-methoxyimidazo[2,1-b][1,3,4]thiadiazol-6-yl)benzofuran-4-yl)oxy)methyl)-5-(trifluoromethyl)thiazol-2-yl)tetrahydro-2H-pyran-4-ol] | > 3000 nM | 0.66 nM | – |
| COc1cc(OCc2csc(NCc3cccnc3)n2)c2cc(-c3cn4nc(C)ccc4n3)oc2c1 [Example 245] | 3130 nM | 5.5 nM | – |
| COc1cc(OCc2nc(N3CC4CCC(C3)O4)sc2C)c2cc(-c3cn4nc(OC)sc4n3)oc2c1 [Example 93, 3-(4-(((6-Methoxy-2-(2-methoxyimidazo[2,1-b]thiadiazol-6-yl)benzofuran-4-yl)oxy)methyl)-5-methylthiazol-2-yl)-8-oxa-3-azabicyclo-[3.2.1]-octane] | 27 nM | 0.45 nM | – |
| COc1cc(OCc2csc(NCC3CCCO3)n2)c2cc(-c3cn4nc(C)ccc4n3)oc2c1 (stereo not shown) [Example 256] | > 3000 nM | 7.8 nM | – |
| CC(F)(F)c1nn2cc(-c3cc4c(OCc5csc(-c6ccccc6)n5)nccc4o3)nc2s1 [Example 202, 2-(2-(1,1-Difluoroethyl)imidazo[2,1-b][1,3,4]thiadiazol-6-yl)-4-((2-phenylthiazol-4-yl)methoxy)furo[3,2-c]pyridine] | > 3000 nM | 43 nM | – |
| COc1cc(OCc2csc(Nc3ccc4[nH]ccc4c3)n2)c2cc(-c3cn4nc(C)ccc4n3)oc2c1 [Example 261] | > 3000 nM | 39 nM | – |
| COc1cc(OCc2csc(C(O)(c3ccc(Cl)cc3)C(F)(F)F)n2)c2cc(-c3cn4nc(OC)sc4n3)oc2c1 (stereo not shown) [Example 145] | 29 nM | 0.45 nM | – |
| COCCN(C)C(=O)c1ccc(-c2nc(COc3cc(OC)cc4oc(-c5cn6nc(OC)sc6n5)cc34)cs2)cc1 [Example 39] | 2.1 nM | 0.46 nM | – |
| COc1cc(OCc2csc(N3CCN(C)C(C)C3)n2)c2cc(-c3cn4nc(C)ccc4n3)oc2c1 (stereo not shown) [Example 276] | > 3000 nM | 24 nM | – |
| COc1cc(OCc2csc(-c3ccc(C(=O)NCC(F)(F)F)cc3)n2)c2cc(-c3cn4nc(OC)sc4n3)oc2c1 [Example 305] | 2 nM | 1 nM | – |
| COc1cc(OCc2csc(-c3ccnc(F)c3)n2)c2cc(-c3cn4nc(OC)sc4n3)oc2c1 [Example 67] | 2.2 nM | 0.34 nM | – |
| COc1cc(OCc2csc(N(C)C)n2)c2cc(-c3cn4nc(C)ccc4n3)oc2c1 [Example 279] | > 3000 nM | 7.3 nM | – |
| COc1cc(OCc2csc(N3CCN(CCO)CC3)n2)c2cc(-c3cn4nc(C)ccc4n3)oc2c1 [Example 243] | > 3000 nM | 32 nM | – |
| COc1cc(OCc2csc(C3(c4ccc(C(=O)N(C)C)cc4)CCOCC3)n2)c2cc(-c3cn4nc(OC)sc4n3)oc2c1 [Example 161, 4-(4-(4-(((6-Methoxy-2-(2-methoxyimidazo[2,1-b][1,3,4]thiadiazol-6-yl)benzofuran-4-yl)oxy)methyl)thiazol-2-yl)tetrahydro-2H-pyran-4-yl)-N,N-dimethylbenzamide] | 27 nM | 0.69 nM | – |
| COc1cc(OCc2csc(N3CCC(N4CCOCC4)CC3)n2)c2cc(-c3cn4nc(C)ccc4n3)oc2c1 [Example 273] | > 3000 nM | 53 nM | – |
| COCCOCc1nc(COc2cc(OC)cc3oc(-c4cn5nc(OC)sc5n4)cc23)cs1 [Example 6, 2-Methoxy-6-(6-methoxy-4-((2-((2-methoxyethoxy)methyl)thiazol-4-yl)methoxy)benzofuran-2-yl)imidazo[2,1-b][1,3,4]thiadiazole] | 2030 nM | 0.68 nM | – |
| CCOC(=O)N[C@@H]1CC[C@@H]2[C@@H](C1)C[C@H]1C(=O)O[C@H](C)[C@H]1[C@H]2/C=C/c1ccc(-c2cccc(F)c2)cn1 [vorapaxar] | – | – | cardiovascular events (PAR1): did not significantly reduce cardiovascular events; risk of major bleeding (PAR1): significantly increased the risk of major bleeding |
| COc1cc(OCc2csc(N(C)CCO)n2)c2cc(-c3cn4nc(C)ccc4n3)oc2c1 [Example 249] | > 3000 nM | 15 nM | – |
| COc1cc(OCc2csc(-c3ccc(Cl)nc3)n2)c2cc(-c3cn4nc(OC)sc4n3)oc2c1 [Example 80] | 0.94 nM | 0.74 nM | – |
| COc1cc(OCc2csc(Nc3cc(C)cc(C)n3)n2)c2cc(-c3cn4nc(C)ccc4n3)oc2c1 [Example 264] | > 3000 nM | 207 nM | – |
| COc1cc(OCc2nc(N)sc2C)c2cc(-c3cn4nc(OC)sc4n3)oc2c1 [Example 87, 4-(((6-Methoxy-2-(2-methoxyimidazo[2,1-b][1,3,4]thiadiazol-6-yl)benzofuran-4-yl)oxy)methyl)-5-methylthiazol-2-amine] | > 3000 nM | 24 nM | – |
| COc1cc(OCc2csc(-c3ccc(F)nc3)n2)c2cc(-c3cn4nc(OC)sc4n3)oc2c1 [Example 73] | 1.9 nM | 0.35 nM | – |
| COc1cc(OCc2csc(-c3ccc4c(c3)OCO4)n2)c2cc(-c3cn4nc(C)ccc4n3)oc2c1 [Example 219] | 25 nM | 1 nM | – |
| COc1cc(OCc2csc(Nc3cc(F)ccc3F)n2)c2cc(-c3cn4nc(C)ccc4n3)oc2c1 [Example 265] | > 3000 nM | 48 nM | – |
